The source of these data is ChEMBL document CHEMBL4765274, “The development of advanced structural framework as multi-target-directed ligands for the treatment of Alzheimer's disease” (Eur J Med Chem, 2020).

As a reminder, the IC50 is the concentration needed to halve the response being measured.

Active and inactive are the calls of the source. The rule behind the calls is not given here.

The nature of data set [1]: Inhibition of Cu2+-induced amyloid beta (1 to 42 residues) (unknown origin) aggregation at 25 uM after 24 hrs by thioflavin-T fluorescence method relative to control.
For the next data set, the system named is Mus musculus. The data set is described as follows: Antialzheimer activity in scopolamine-induced Kunming mouse model of memory impairment assessed as latency time at 5 mg/kg , po by step-down passive avoidance test (reference value: 125.65 sec). It counts as functional.
The species named for a further data set is Danio rerio. The data set is described as follows: Antialzheimer activity in Alcl3-induced zebra fish AD model assessed as increase in motility at 8 uM relative to control. It counts as functional.
Data set [2] is described as follows: Inhibition of self-induced amyloid beta (1 to 42 residues) (unknown origin) aggregation by thioflavin T based fluorescence assay. On the set-up: species or system Homo sapiens.
Data set [3] addresses Acetylcholinesterase (Electrophorus electricus, UniProt O42275). The data set is described as follows: Inhibition of electric eel AChE by Ellman's method. (In general: In Ellman's method for cholinesterases, released thiocholine reacts with DTNB.)
In data set [4] the test system is SH-SY5Y. The data set is described as follows: Cytotoxicity against human SH-SY5Y cells assessed as cell viability up to 100 uM after 48 hrs by MTT assay relative to control. It counts as cell-based. For orientation: Formazan colour is commonly taken as a measure of viable cells.
Data set [5] in a line: Antioxidant activity assessed as trolox equivalent of AAPH radical scavenging activity measured every min for 4 hrs by ORAC-FL assay relative to trolox. It counts as functional.
For data set [6], the target named is Cholinesterase (Equus caballus, UniProt P81908). The data set is described as follows: Inhibition of equine serum BChE by Ellman's method. It counts as cell-free.
Data set [7] deals with Cholinesterase (Homo sapiens, UniProt P06276). The data set is described as follows: Inhibition of human serum BChE by Ellman's method. It counts as cell-free.
The target of data set [8] is Acetylcholinesterase (Homo sapiens, UniProt P22303). The data set is described as follows: Inhibition of AChE in human erythrocytes by Ellman's method. It counts as cell-based, Erythrocyte.
The nature of data set [9]: Selectivity index, ratio of IC50 for inhibition of equine serum BChE to IC50 for inhibition of electric eel AChE.
The subject of a further data set is PC-12. The data set is described as follows: Neuroprotective activity against H2O2-induced cytotoxicity in rat PC-12 cells assessed as decrease in LDH activity at 1 to 10 uM preincubated for 2 hrs followed by H2O2 addition and measured after 24 hrs by LDH assay. Particulars: dose 1-10 µM, time 26.0 hrs. The format is functional, cell-based.
Data set [10] in a line: Cytotoxicity against rat PC-12 cells assessed as cell viability at 100 uM after 48 hrs by MTT assay relative to control. Particulars: read-out: Activity. It counts as cell-based.
Data set [11] concerns SH-SY5Y. The data set is described as follows: Neuroprotective activity against amyloid beta (1 to 42 residues)-induced cytotoxicity in human SH-SY5Y cells assessed as increase in cell viability at 1 to 10 uM incubated for 48 hrs by MTT assay. It counts as functional, cell-based. The settings on record: dose 1-10 µM.

Sequence of Cholinesterase (Homo sapiens, UniProt P06276) (P06276 whole entry): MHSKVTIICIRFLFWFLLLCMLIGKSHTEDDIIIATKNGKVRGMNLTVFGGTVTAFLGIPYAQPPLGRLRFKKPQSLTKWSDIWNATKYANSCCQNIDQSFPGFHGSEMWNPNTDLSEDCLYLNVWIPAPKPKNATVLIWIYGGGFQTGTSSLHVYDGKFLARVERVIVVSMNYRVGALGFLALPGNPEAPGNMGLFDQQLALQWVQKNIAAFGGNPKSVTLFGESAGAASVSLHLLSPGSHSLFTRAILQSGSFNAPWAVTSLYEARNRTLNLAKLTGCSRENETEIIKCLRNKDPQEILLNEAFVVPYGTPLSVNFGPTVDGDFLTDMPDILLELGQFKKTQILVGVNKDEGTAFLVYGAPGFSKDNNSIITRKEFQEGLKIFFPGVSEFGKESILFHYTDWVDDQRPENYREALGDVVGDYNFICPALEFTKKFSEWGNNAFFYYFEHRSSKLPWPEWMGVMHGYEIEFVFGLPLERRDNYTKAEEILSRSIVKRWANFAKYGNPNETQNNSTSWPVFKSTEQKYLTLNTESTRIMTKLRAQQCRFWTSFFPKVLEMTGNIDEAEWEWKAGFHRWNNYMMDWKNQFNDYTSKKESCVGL
Sequence of Acetylcholinesterase (Homo sapiens, UniProt P22303) (P22303 whole entry): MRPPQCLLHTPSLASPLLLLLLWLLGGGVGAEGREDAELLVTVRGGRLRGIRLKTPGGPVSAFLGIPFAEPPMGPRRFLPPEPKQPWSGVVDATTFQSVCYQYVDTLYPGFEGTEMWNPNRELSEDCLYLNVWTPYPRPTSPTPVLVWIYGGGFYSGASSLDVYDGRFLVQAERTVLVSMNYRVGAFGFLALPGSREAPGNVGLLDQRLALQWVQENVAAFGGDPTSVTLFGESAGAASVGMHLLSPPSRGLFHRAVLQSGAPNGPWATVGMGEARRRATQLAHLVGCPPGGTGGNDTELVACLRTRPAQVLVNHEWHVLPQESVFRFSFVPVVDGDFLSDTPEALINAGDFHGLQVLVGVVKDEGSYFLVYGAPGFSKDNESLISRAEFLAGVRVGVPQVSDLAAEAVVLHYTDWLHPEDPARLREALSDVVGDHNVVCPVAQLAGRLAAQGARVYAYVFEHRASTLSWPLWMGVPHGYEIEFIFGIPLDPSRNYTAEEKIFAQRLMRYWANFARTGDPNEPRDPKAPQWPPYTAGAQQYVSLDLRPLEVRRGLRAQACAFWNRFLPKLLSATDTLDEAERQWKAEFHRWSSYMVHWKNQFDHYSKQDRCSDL
Sequence of Acetylcholinesterase (Electrophorus electricus, UniProt O42275) (O42275 whole entry): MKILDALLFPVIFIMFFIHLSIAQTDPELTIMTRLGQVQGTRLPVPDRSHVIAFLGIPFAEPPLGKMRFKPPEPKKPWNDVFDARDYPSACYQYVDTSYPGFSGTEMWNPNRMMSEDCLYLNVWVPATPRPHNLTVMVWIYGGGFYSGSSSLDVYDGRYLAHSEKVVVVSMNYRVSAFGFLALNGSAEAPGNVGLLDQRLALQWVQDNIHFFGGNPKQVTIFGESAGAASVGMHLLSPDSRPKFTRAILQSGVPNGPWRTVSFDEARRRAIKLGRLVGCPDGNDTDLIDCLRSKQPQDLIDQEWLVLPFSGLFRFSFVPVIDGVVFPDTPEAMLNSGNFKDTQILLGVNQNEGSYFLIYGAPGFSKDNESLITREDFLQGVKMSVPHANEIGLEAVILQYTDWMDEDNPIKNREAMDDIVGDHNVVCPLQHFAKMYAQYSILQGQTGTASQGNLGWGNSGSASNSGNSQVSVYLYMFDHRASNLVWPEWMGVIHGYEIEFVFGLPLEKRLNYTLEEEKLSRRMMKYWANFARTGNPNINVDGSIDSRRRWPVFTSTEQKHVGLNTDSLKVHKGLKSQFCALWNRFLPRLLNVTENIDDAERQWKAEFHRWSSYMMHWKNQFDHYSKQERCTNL
Sequence of Cholinesterase (Equus caballus, UniProt P81908) (P81908 whole entry): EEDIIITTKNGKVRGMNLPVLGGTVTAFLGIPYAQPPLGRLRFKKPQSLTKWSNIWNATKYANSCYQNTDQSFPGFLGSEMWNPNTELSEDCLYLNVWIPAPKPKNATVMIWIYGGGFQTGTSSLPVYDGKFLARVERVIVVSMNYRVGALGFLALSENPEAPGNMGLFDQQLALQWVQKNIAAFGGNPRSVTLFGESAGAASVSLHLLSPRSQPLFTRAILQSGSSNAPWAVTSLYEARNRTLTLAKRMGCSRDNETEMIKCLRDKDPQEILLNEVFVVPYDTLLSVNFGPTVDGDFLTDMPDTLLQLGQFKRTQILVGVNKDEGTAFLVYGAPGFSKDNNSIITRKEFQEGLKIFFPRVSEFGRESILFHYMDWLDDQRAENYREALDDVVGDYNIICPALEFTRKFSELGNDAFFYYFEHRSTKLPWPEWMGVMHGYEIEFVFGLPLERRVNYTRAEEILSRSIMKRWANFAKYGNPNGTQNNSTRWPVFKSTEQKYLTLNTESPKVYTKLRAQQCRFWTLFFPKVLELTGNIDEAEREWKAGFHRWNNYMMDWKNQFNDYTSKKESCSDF

Regarding `COc1cc2c(cc1OC)C(=O)C(CC1CCN(Cc3ccccc3)CC1)C2` (stereo not given) [DONEPEZIL], the inhibition result in data set [1] was “inactive”. For the same compound, the Time in the data set on Mus musculus is 251.42 s. The Activity in the data set filed under Danio rerio is on record as 55%. In addition, in [2], the IC50 result is given as “Not Active”.
Regarding `CCN(CCCCOc1ccc(/C=C/C(=O)c2c(O)cc(OCCCCN(CC)Cc3ccccc3OC)cc2O)cc1)Cc1ccccc1OC`, the IC50 was 1.16 µM on Acetylcholinesterase [3]; 15.6 µM against Cholinesterase [6]; 3.7 µM in [2] (read-out: IC50); 5.2 µM at Cholinesterase [7]; 1.3 µM against Acetylcholinesterase [8]. In addition, in the data set on SH-SY5Y [4], the Activity result is given as “Toxic”. Besides, the fold change (FC) in data set [5] is 1.3. In addition, the Ratio IC50 in data set [9] is 13.4. In addition, the result with PC-12 and in the data set on SH-SY5Y [11] was Active. The viability at 48 h, 100 µM in data set [10] stood at 55.6%.
